Assay results from ChEMBL document CHEMBL1201862, “PubChem BioAssay data set” (2004).
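Grown in 96-well plates, cells were treated for 48 hours with each compound at five concentrations. Insufficient inhibition: endpoint recorded as highest concentration tested. GI50: concentration for 50% inhibition of growth.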 Calls of active or inactive are those of the source. No stated cut-off is given here; in the data, active = GI50 up to about 1.1 µM and inactive = higher.

Assays:
Assay in all cases: growth of human tumour cells (NCI), 48 h
COLO 205 = test system: COLO 205
SK-MEL-28 = test system: SK-MEL-28
OVCAR-3 = test system: OVCAR-3
SK-OV-3 = test system: SK-OV-3
NCI-H460 = test system: NCI-H460
T47D = test system: T47D
U-251 = test system: U-251
786-0 = test system: 786-0
SW-620 = test system: SW-620
SK-MEL-2 = test system: SK-MEL-2
RPMI-8226 = test system: RPMI-8226
HCC 2998 = test system: HCC 2998
Hs-578T = test system: Hs-578T
SF-295 = test system: SF-295
HCT-15 = test system: HCT-15
NCI/ADR-RES = test system: NCI/ADR-RES
UACC-257 = test system: UACC-257
K562 = test system: K562
HCT-116 = test system: HCT-116
CCRF-CEM = test system: CCRF-CEM
M14 = test system: M14
MDA-N = test system: MDA-N
MDA-MB-435 = test system: MDA-MB-435
HT-29 = test system: HT-29
MDA-MB-231 = test system: MDA-MB-231
OVCAR-4 = test system: OVCAR-4
A549 = test system: A549
ACHN = test system: ACHN
UACC-62 = test system: UACC-62
HL-60 = test system: HL-60
MCF7 = test system: MCF7
NCI-H522 = test system: NCI-H522
HOP-92 = test system: HOP-92
SNB-19 = test system: SNB-19
HOP-62 = test system: HOP-62
IGROV-1 = test system: IGROV-1
SK-MEL-5 = test system: SK-MEL-5
UO-31 = test system: UO-31
SN12C = test system: SN12C
CAKI-1 = test system: CAKI-1
MOLT-4 = test system: MOLT-4
PC-3 = test system: PC-3
TK-10 = test system: TK-10
EKVX = test system: EKVX
OVCAR-5 = test system: OVCAR-5
RXF 393 = test system: RXF 393
LOX IMVI = test system: LOX IMVI
KM12 = test system: KM12
SNB-75 = test system: SNB-75
SR = test system: SR
OVCAR-8 = test system: OVCAR-8
SF-539 = test system: SF-539
Malme-3M = test system: Malme-3M
NCI-H23 = test system: NCI-H23
A498 = test system: A498
NCI-H226 = test system: NCI-H226
DU-145 = test system: DU-145
SF-268 = test system: SF-268
BT-549 = test system: BT-549

Measured: GI50

CC(C)(C)C(O)CC(O)(C(F)(F)F)C(F)(F)F (stereo not drawn)
> 100 µM: HCT-15
inactive: COLO 205 > 100 µM | SK-MEL-28 > 100 µM | OVCAR-3 > 100 µM | SK-OV-3 > 100 µM | NCI-H460 > 100 µM | T47D > 100 µM | U-251 > 100 µM | 786-0 > 100 µM | SW-620 > 100 µM | SK-MEL-2 > 100 µM | RPMI-8226 > 100 µM | HCC 2998 > 100 µM | Hs-578T > 100 µM | SF-295 > 100 µM | NCI/ADR-RES > 100 µM | UACC-257 > 100 µM | K562 > 100 µM | HCT-116 > 100 µM | CCRF-CEM > 100 µM | M14 > 100 µM | MDA-N > 100 µM | MDA-MB-435 > 100 µM | HT-29 > 100 µM | MDA-MB-231 > 100 µM | OVCAR-4 > 100 µM | A549 > 100 µM | ACHN > 100 µM | UACC-62 > 100 µM | HL-60 > 100 µM | MCF7 > 100 µM | NCI-H522 > 100 µM | HOP-92 > 100 µM | SNB-19 > 100 µM | HOP-62 > 100 µM | IGROV-1 > 100 µM | SK-MEL-5 > 100 µM | UO-31 > 100 µM | SN12C > 100 µM | CAKI-1 > 100 µM | MOLT-4 > 100 µM | PC-3 > 100 µM | TK-10 > 100 µM | EKVX > 100 µM | OVCAR-5 > 100 µM | RXF 393 > 100 µM | LOX IMVI > 100 µM | KM12 > 100 µM | SNB-75 56.9 µM | SR > 100 µM | OVCAR-8 > 100 µM | SF-539 > 100 µM | Malme-3M > 100 µM | NCI-H23 > 100 µM | A498 > 100 µM | NCI-H226 > 100 µM | DU-145 > 100 µM | SF-268 > 100 µM

CCN1C/C(=C\c2ccc(Cl)cc2)c2nc(N)c(C#N)c(-c3ccc(Cl)cc3)c2C1
> 100 µM: HCT-15
inactive: COLO 205 > 100 µM | SK-MEL-28 > 100 µM | OVCAR-3 > 100 µM | SK-OV-3 > 100 µM | NCI-H460 > 100 µM | U-251 > 100 µM | 786-0 > 100 µM | SW-620 > 100 µM | SK-MEL-2 > 100 µM | RPMI-8226 > 100 µM | HCC 2998 > 100 µM | Hs-578T > 100 µM | SF-295 > 100 µM | NCI/ADR-RES > 100 µM | UACC-257 > 100 µM | K562 > 100 µM | HCT-116 > 100 µM | CCRF-CEM > 100 µM | M14 > 100 µM | MDA-N > 100 µM | MDA-MB-435 > 100 µM | HT-29 > 100 µM | MDA-MB-231 > 100 µM | OVCAR-4 > 100 µM | A549 > 100 µM | ACHN > 100 µM | UACC-62 > 100 µM | HL-60 > 100 µM | MCF7 > 100 µM | NCI-H522 > 100 µM | SNB-19 > 100 µM | HOP-62 > 100 µM | BT-549 > 100 µM | IGROV-1 > 100 µM | SK-MEL-5 > 100 µM | UO-31 > 100 µM | CAKI-1 > 100 µM | MOLT-4 67.9 µM | PC-3 > 100 µM | TK-10 > 100 µM | EKVX > 100 µM | OVCAR-5 > 100 µM | RXF 393 > 100 µM | LOX IMVI > 100 µM | KM12 > 100 µM | SNB-75 60.3 µM | SR 27.1 µM | OVCAR-8 > 100 µM | Malme-3M > 100 µM | NCI-H23 > 100 µM | A498 > 100 µM | NCI-H226 > 100 µM | DU-145 > 100 µM | SF-268 > 100 µM
